This passage reports IC50 and EC50 results from patent US10030016B2 (Sunesis Pharmaceuticals, Inc., priority 2009, dated 2018).

Structures can show the parent of a compound that is named as a salt. Where two headings read alike, the source gives them in different places.

One experiment deals with PDK1 (Homo sapiens (Human), UniProt O15530). Kind of experiment: PDK1 kinase assay (coupled PDK1/AKT/FAM-crosstide assay, IMAP fluorescence polarization). The experiment is classed as biochemical. The procedure:
A PDK1 kinase assay was performed as follows. PDK1 (amino acids 51-359) and AKT2 (amino acids 140-467 fused to PIFtide, amino acids […]) were expressed as N-terminally tagged GST fusion proteins in insect cells and purified to homogeneity. Enzyme activity was determined in a coupled PDK1/AKT/FAM-crosstide assay and phosphorylation of FAM-crosstide was determined by standard IMAP protocol (Molecular Devices). For inhibition studies, compounds were titrated 4-fold in DMSO and diluted 40-fold into assay buffer (10 mM Tris HCl pH7.2; 10 mM MgCl2; 0.01% Triton X-100; 1 mM DTT) containing PDK1, AKT2, and FAM-crosstide (final concentrations: 0.75 nM PDK1, 10 nM unphosphorylated AKT2, and 100 nM crosstide substrate). The kinase reaction was initiated by adding ATP to a final concentration of 40 μM of PDK1 and incubated at 25° C. for 30 min. To detect assay product, the kinase reaction was combined with Progressive Binding Solution (1:600 Progressive Binding Reagent, 50% Buffer A, 50% Buffer B, Molecular Devices) in a 1:3 ratio. The mixture was incubated for 2 hours at 25° C. and the plate was scanned on an Analyst AD with excitation at 485 nm and emission at 530 nm. The fluorescence polarization value “P” is defined by the equation below. The value “mP” is generated by multiplying the P value for each reaction well by a factor of 1000. The value “ΔmP” for each well is the mP value for that well minus the mP value for the average negative control. P=(Fpar−Fperp)/(Fpar+Fperp) Eq.:
Where “par” is fluorescence intensity parallel to the excitation plane; and “perp” is fluorescence intensity perpendicular to the excitation plane. ΔmP values were plotted as a function of compound concentration and the data were analyzed with a 4-parameter fit using GraphPad Prism software.
On the technique in general: Polarisation of emitted light reports the rotation of a fluorescent probe.

The subject of experiment [1] is phospho-akt (Thr308) in PC-3 cells. In words: Inhibition of phospho-akt (Thr308) in PC-3 cells, MSD phospho-akt 308 ELISA kit. The experiment is classed as cell-based. As to conditions: Homo sapiens, 2 hours, no serum, read-out: EC50. The procedure: PC-3 cells were harvested by trypsin and counted. Cells were plated in coated 96-well flat bottom plates (plate 15,000 cells/well in 100 ul growth media (10% FBS, 1× pen-strep) an place in an incubator overnight.
Subject inhibitors were stocked at 50 mM, then diluted to 30 mM (4.8 μl cpd plus […] DMSO) in 100% DMSO. Three-fold dilutions were performed from 30 mM stock. (4 μl into 8 ul 100% DMSO). Aliquots of 1.0 μl of inhibitor solution were transferred into SF Medium (using deep well block).
Control wells were prepared as follows. For DMSO high controls, 1.0 μl of 100% DMSO was added into 1.0 ml SF. For low controls for PC-3 cells, 5 μM of Wortmannin (10 μl of 1 mM Wortmannin stock was added into 2 ml SF Medium. The supernatant media was removed and the plate was blotted. 100 μl of controls/media or compound/media were added to cells and placed in incubator for 2 hours. The supernatant media was removed and the plate was blotted. 55 μl of the MSD complete lysis buffer was added (10 mls Tris Lysis buffer, 200 ul protease inhibitor, 100 ul phosphatase inhibitor 1, and 100 ul phosphatase inhibitor II). The plate was placed on a plate shaker for 60 mins at 4 deg.
MSD plates were blocked for 1 hour by adding 150 μl of Blocking Solution (3% BSA) to each well. The MSD plates were washed 4× with TBST, and 50 μl lysates were transferred to MSD plate and place on plate shaker shake at 4 degrees O/N, light shaking (speed 3.5). The plate was washed 4× with TBST.
25 μl of Ab detection solution was added to each well. The plate was sealed and incubated 1 hr RT, light shaking (speed 3.5). The plate was washed 4 times with TBST. 150 μl of Read Buffer was added (5 mls 4×MSD Read Buffer+15 mls water). Finally the plate was read immediately on the MSD plate reader.

Setting [2] is: inhibition of phospo-PDK1 in vitro.
Setting [3] is: inhibition of P308 Akt in PC-3 cells, MSD.
Setting [4] is: inhibition of P308 Akt in PC-3 cells using MSD.

Sequence of PDK1 (O15530 51-359): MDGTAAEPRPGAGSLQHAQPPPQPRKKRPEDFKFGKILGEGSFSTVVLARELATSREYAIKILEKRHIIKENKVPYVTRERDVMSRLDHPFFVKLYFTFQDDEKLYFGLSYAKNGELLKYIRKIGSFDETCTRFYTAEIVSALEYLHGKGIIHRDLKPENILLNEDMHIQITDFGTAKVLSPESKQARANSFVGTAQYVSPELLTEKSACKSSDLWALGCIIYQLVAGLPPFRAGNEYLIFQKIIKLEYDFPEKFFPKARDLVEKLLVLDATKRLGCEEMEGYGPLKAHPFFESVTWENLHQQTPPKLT

What is called IC50 is the concentration at which inhibition is half-maximal. Low readings indicate inhibition by little substance, high ones a need for much substance. As usually defined, the EC50 is the concentration needed to bring the measured effect to its halfway point. On PDK1 (setting [2]), `CCN(CC)CCNC(=O)c1c(C)[nH]c(/C=C2\C(=O)Nc3cc(/C=C/CNc4ncccc4C(=O)NCc4ccc(F)c(F)c4)ccc32)c1C` [Example 15.17, 2-((E)-3-((Z)-3-((4-(2-(diethylamino)ethylcarbamoyl)-3,5-dimethyl-1H-pyrrol-2-yl)methylene)-2-oxoindolin-6-yl)allylamino)-N-(3,4-difluorobenzyl)nicotinamide] had an IC50 of under 100 nM. The EC50 in experiment [1] (setting [3]) was 1000 to 10000 nM.

At PDK1 (setting [2]), `CNS(=O)(=O)c1cnc(NCc2ccc(-c3ccc4ncnc(N)c4c3)s2)c(C(=O)NCc2ccc(F)c(F)c2)c1` [Ex. 8.7.1, 2-(((5-(4-aminoquinazolin-6-yl)thiophen-2-yl)methyl)amino)-N-(3,4-difluorobenzyl)-5-(N-methylsulfamoyl)nicotinamide] came in with an IC50 of 100 to 1000 nM. For the same molecule, the 50% effective concentration (EC50) in experiment [1] (setting [3]) was under 1000 nM.

`Nc1n[nH]c2ncc(-c3ccc(CNc4ncc(C(F)(F)F)cc4C(=O)N[C@@H](CO)c4ccc(Br)cc4)cc3)cc12` [Example 283, (R)-2-(4-(3-amino-1H-pyrazolo [3,4-b]pyridin-5-yl)benzylamino)-N-(1-(4-bromophenyl)-2-hydroxyethyl)-5-(trifluoromethyl)nicotinamide]: the IC50 on PDK1 (inhibition of PDK1 in vitro) was over 5000 nM. Further, in experiment [1] (setting [4]), the half-maximal effective concentration (EC50) lay within 1000 to 10000 nM.

`C[C@H](NC(=O)c1cccnc1NCc1ccc(-c2ccc3ncc(-n4cccn4)nc3c2)s1)c1ccc(F)c(F)c1` [Example 4.26, (S)-2-(((5-(3-(1H-pyrazol-1-yl)quinoxalin-6-yl)thiophen-2-yl)methyl)amino)-N-(1-(3,4-difluorophenyl)ethyl)nicotinamide] had a 50% inhibitory concentration (IC50) against PDK1 (setting [2]) of over 5000 nM. Moreover, the EC50 in experiment [1] (setting [3]) was over 10000 nM. `O=C(NCc1ccc(F)cc1)c1cccnc1NCc1ccc(-c2cnc3[nH]c(=O)[nH]c3c2)cc1` [Example 360, N-(4-fluorobenzyl)-2-(4-(2-oxo-2,3-dihydro-1H-imidazo [4,5-b]pyridin-6-yl)benzyl-amino)nicotinamide] had a concentration for half-maximal inhibition (IC50) against PDK1 (inhibition of PDK1 in vitro) of under 100 nM. Besides, in experiment [1] (setting [4]), the EC50 is under 1000 nM. In the case of `CC(C)Oc1cc(CNc2ncccc2C(=O)NC2CC2)cc(-c2c[nH]c3ncc(C(=O)NC4CC4)cc23)c1` [Example 4.1.7, N-cyclopropyl-3-[3-({[3-(cyclopropylcarbamoyl)pyridin-2-yl]amino}methyl)-5-(propan-2-yloxy)phenyl]-1H-pyrrolo[2,3-b] pyridine-5-carboxamide], the IC50 at PDK1 (setting [2]) is 1000 to 5000 nM. The EC50 in experiment [1] (setting [3]) lay in the range of 1000 to 10000 nM. `C[C@H](NC(=O)c1cc(C#N)cnc1NCc1ccc(-c2ccc(C(N)=O)nc2)cc1)c1ccc(F)cc1` [Example 114, (S)-5-(4-((5-cyano-3-(1-(4-fluorophenyl)ethylcarbamoyl)pyridin-2-ylamino)methyl)phenyl)picolinamide]: the IC50 against PDK1 (inhibition of PDK1 in vitro) fell in the range of 100 to 1000 nM. Also, in experiment [1] (PC-3, 2 h, inhibition of P308 Akt in PC-3 cells using MSD), the EC50 was over 10000 nM. At PDK1 (setting [2]), `O=C(NCc1ccc(F)c(F)c1)c1cccnc1NCc1csc(-c2ccc3ncnc(NC4CC4)c3c2)n1` [Ex. 6.9, 2-[({2-[4-(cyclopropyl-amino)quinazolin-6-yl)-1,3-thiazol-4-yl}methyl)amino]-N-(3,4-difluorobenzyl) pyridine-3-carboxamide] showed an IC50 of under 100 nM. Moreover, the half-maximal effective concentration (EC50) in experiment [1] (setting [3]) is over 10000 nM. As to `Nc1ncnc2ccc(-c3ccc(CNc4ncc(S(=O)(=O)NCc5ccccc5)cc4C(=O)NCc4ccc(F)c(F)c4)s3)cc12` [Example 8.6.7, 2-(((5-(4-aminoquinazolin-6-yl)thiophen-2-yl)methyl)amino)-5-(N-benzylsulfamoyl)-N-(3,4-difluorobenzyl) nicotinamide], the IC50 on PDK1 (setting [2]) was 100 to 1000 nM. The 50% effective concentration (EC50) in experiment [1] (setting [3]) was over 10000 nM. Turning to `C[C@H](NC(=O)c1cccnc1NCc1ccc(-c2cn(C)c(=O)c3ccccc23)s1)c1ccc(F)cc1` [Example 2.10, (S)-N-(1-(4-fluorophenyl)ethyl)-2-(((5-(2-methyl-1-oxo-1,2-di-hydroisoquinolin-4-yl)thiophen-2-yl)methyl)amino)nicotinamide], the IC50 against PDK1 (setting [2]) is over 5000 nM. Also, the EC50 in experiment [1] (setting [3]) was over 10000 nM. In turn, `C[C@H](NC(=O)c1cccnc1NCc1ccc(-c2ccn3ncnc3c2)s1)c1ccc(F)cc1` [Example 2.5, N-[(1S)-1-(4-fluorophenyl)ethyl]-2-({[5-([1,2,4]triazolo[1,5-a]pyridin-7-yl)thiophen-2-yl)methyl}amino)pyridine-3-carboxamide] came in with an IC50 against PDK1 (setting [2]) of 1000 to 5000 nM. For the same molecule, the concentration giving a half-maximal response (EC50) in experiment [1] (PC-3, 2 h, inhibition of P308 Akt in PC-3 cells, MSD) is over 10000 nM.

The molecule `Nc1ncnc2ccc(-c3ccc(CNc4ncccc4C(=O)Nc4ccc(C(F)(F)F)cc4)s3)cc12` [Example 3.26, 2-({[5-(4-aminoquinazolin-6-yl)thiophen-2-yl]methyl}amino)-N-[4-(trifluoromethyl)phenyl] pyridine-3-carboxamide (TFA salt)] displayed a 50% inhibitory concentration (IC50) against PDK1 (setting [2]) of over 5000 nM. Besides, the EC50 in experiment [1] (setting [3]) was over 10000 nM. The matching figures for `O=C(NCc1ccc(F)c(F)c1)c1cccnc1NCc1cc(-c2c[nH]c3ncccc23)cs1` [Ex. 6.15, N-(3,4-difluorobenzyl)-2-({[4-(1H-pyrrolo[2,3-b]pyridin-3-yl)thiophen-2-yl]-methyl}amino) pyridine-3-carboxamide]: 100 to 1000 nM and over 10000 nM. Consider `CNC(=O)c1cc(S(=O)(=O)NCCCN(C)C)cnc1NCc1ccc(-c2ccc3ncnc(N)c3c2)s1` [Example 341], for which the 50% inhibitory concentration (IC50) at PDK1 (inhibition of PDK1 in vitro) was over 5000 nM. The EC50 in experiment [1] (setting [4]) is over 10000 nM.

With `C[C@H](NC(=O)c1cccnc1NCCOc1ccc2cc[nH]c2c1)c1ccc(F)c(F)c1` [Example 19.1, (S)-2-(2-(1H-indol-6-yloxy)ethylamino)-N-(1-(3,4-difluorophenyl)ethyl)nicotinamide], the IC50 at PDK1 (setting [2]) was over 5000 nM. In addition, the EC50 in experiment [1] (setting [3]) was over 10000 nM. Take `N#Cc1cnc(NCc2ccc(-c3cnc4[nH]c(=O)[nH]c4c3)cc2)c(C(=O)NCc2ccc(F)cc2)c1` [Example 358, 5-cyano-N-(4-fluorobenzyl)-2-(4-(2-oxo-2,3-dihydro-1H-imidazo[4,5-b]pyridin-6-yl)benzylamino)nicotinamide]: on PDK1 (inhibition of PDK1 in vitro), the IC50 is under 100 nM. In addition, in experiment [1] (setting [4]), the EC50 is under 1000 nM. On PDK1 (setting [2]), `O=C(NCc1ccc(F)c(F)c1)c1cccnc1NCc1cnc(-c2c[nH]c3ncccc23)s1` [Ex. 6.10, N-(3,4-difluorobenzyl)-2-({[2-(1H-pyrrolo[2,3-b]pyridin-3-yl)-1,3-thiazol-5-yl]methyl}amino) pyridine-3-carboxamide] returned an IC50 of 100 to 1000 nM. Moreover, the EC50 in experiment [1] (setting [3]) fell in the range of 1000 to 10000 nM. Turning to `Nc1ncnc2ccc(-c3ccc(CNc4ncccc4S(=O)(=O)NCc4ccc(F)c(F)c4)s3)cc12` [Example 20.2, 2-(((5-(4-aminoquinazolin-6-yl)thiophen-2-yl)methyl)amino)-N-(3,4-difluorobenzyl)pyridine-3-sulfonamide], the IC50 against PDK1 (setting [2]) is over 5000 nM. Same read-out and setting: the result for `C[C@H](NC(=O)c1cccnc1NCc1ccc(-c2ccc3ncncc3c2)s1)c1ccc(F)cc1` [Example 2.11, (S)-N-(1-(4-fluorophenyl)ethyl)-2-(((5-(quinazolin-6-yl)thiophen-2-yl)methyl)amino)nicotinamide] reads 100 to 1000 nM. Same read-out and setting: the result for `O=C(NC1CC1)c1cccnc1NCc1cccc(-c2c[nH]c3ncccc23)c1` [Example 1.12, N-cyclopropyl-2-{[3-(1H-pyrrolo [2,3-b]pyridin-3-yl)benzyl]amino} pyridine-3-carboxamide] reads over 5000 nM.
